Measurements: patent US6297216A, “Compounds for reversing drug resistance” (Solvo Biotechnology, priority 1997, dated 2001)
Like-named read-outs stand apart in the source and are kept apart here. Peptide text beside a SMILES is read from it. * marks the point of attachment. Cbz = O=C(OCc1ccccc1)*; Boc = CC(C)(C)OC(=O)*; OBn = c1ccc(CO*)cc1; OtBu = CC(C)(C)O*

Legend:
control NIH 3T3 cells = experiment: Fluorescent dye accumulation in fibroblasts which do not overexpress MDR1; format: cell-based, mouse; conditions: fibroblasts which do not overexpress MDR1, FIG. 6
Procedure: NIH 3T3 cells were cultured under standard conditions in D-MEM medium. […] Before each experiment the cells were trypsinized, then washed and stored in D-MEM medium at 37° C. KBV1 (MDR1^+) and KB3 (MDR1^-) human tumor cells were also cultured in D-MEM, which K562 human tumor cells were grown in RPMI medium, supplemented with 10% FCS.
Human MDR1-transfected mouse fibroblasts and MDR1-expressing human tumor cells actively extrude the AM forms of several fluorescent indicators, lowering the level of intracellular fluorescence in cells with active multidrug transport.
Dye uptake was measured by incubating 2×10^6 cells/ml D-MEM medium at 37° C. in the presence of 0.5 μM Fura-2 AM (added in 5 mM stock solution in DMSO), then rapidly spinning the cells (15 sec, 12,000×g), and rinsing the pellet with HPM1 medium (containing 120 mM NaCl, 5 mM kcl, 0.4 mM MgCl2, 0.04 mM CaCl2, 10 mM HEPES-Na (pH 7.4), 10 mM NaHCO3, 10 mM glucose, and 5 mM Na2 HPO4). The cells were resuspended in 2 ml HPM1 and fluorescence was measured with rapid stirring in a Hitachi F-4000 fluorescent spectrophotometer. The excitation wavelength was 340 nm, and emission was measured at 410 nm. Maximum fluorescence and dye concentration were measured after the addition of 0.5% Triton X-100 and 2 mM CaCl2 to the medium. The dye concentration was calibrated based on the measurements of free acid dye fluorescence in the same instrument under identical conditions.

MDR1 [1] = target: T1, MDR1 (Homo sapiens, UniProt P08183)
T1 sequence (P08183 whole entry): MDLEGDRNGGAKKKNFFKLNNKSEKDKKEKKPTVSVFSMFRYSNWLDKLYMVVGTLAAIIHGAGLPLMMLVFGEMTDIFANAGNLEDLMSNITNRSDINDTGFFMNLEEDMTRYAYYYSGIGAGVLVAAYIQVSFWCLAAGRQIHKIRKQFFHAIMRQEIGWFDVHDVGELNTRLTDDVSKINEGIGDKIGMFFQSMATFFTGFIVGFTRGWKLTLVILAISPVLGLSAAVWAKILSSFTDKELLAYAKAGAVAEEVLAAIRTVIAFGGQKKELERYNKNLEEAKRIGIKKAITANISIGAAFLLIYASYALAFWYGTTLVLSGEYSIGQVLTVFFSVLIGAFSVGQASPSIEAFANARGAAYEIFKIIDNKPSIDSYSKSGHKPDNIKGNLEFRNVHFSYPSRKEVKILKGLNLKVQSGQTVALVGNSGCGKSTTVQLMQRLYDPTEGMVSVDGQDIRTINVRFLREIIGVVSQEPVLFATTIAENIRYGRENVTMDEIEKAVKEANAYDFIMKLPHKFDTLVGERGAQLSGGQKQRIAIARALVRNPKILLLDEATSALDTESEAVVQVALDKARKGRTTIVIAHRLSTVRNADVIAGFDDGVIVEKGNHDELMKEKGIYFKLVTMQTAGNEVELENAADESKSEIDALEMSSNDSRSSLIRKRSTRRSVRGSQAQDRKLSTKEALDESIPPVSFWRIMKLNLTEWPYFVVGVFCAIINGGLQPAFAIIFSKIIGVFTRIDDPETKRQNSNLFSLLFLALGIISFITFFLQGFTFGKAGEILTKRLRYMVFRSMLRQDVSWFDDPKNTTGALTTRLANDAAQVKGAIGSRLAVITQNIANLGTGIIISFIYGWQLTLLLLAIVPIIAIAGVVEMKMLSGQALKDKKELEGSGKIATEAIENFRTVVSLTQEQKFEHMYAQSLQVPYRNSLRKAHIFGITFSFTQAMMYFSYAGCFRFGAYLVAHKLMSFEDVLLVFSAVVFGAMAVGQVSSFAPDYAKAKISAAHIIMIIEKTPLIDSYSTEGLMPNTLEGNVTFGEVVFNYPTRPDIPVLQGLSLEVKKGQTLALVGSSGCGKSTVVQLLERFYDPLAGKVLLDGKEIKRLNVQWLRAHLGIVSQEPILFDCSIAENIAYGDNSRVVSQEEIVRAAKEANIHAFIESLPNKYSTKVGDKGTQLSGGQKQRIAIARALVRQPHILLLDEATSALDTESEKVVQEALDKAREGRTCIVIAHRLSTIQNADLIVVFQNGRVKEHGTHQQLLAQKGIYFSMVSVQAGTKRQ

control P388 cells = experiment: Mouse P388 leukemia model, survival; format: in vivo; conditions: 1 mg/kg/day for 6 days, mice injected with control P388 cells
Excerpt: (§1) In vivo animal studies for the effectiveness of Reversins can be conducted using any suitable animal model system known to those skilled in the art. One example of an appropriate system is the mouse P388 leukemia model system (Tsurouo et al., supra). This animal model is widely accepted for testing the effect of cytotoxic antileukemic agents or response-modifier compounds.
(§2) Inbred (DBA×black F1) mice received 10^6 P388 leukemia cells by intraperitoneal injection. The survival of the mice was followed. The mice were injected with control P388 cells, as well as with P388 cells that had been selected under drug exposure. Drug exposure induced over-expression of the MDR1 protein (P388-MDR cells).
(§3) The mice injected with the P388 cells were treated with doxorobicin (adriamycin) in a dose of 1 mg/kg/day for 6 days after the injection of the P388 cells. […] Reversin can be administered to the animals in a dose of 2 mg/kg, a level which has no toxic effect on the control animals, as discussed above.

P388-MDR cells = experiment: Mouse P388-MDR leukemia model, survival; format: in vivo; conditions: 1 mg/kg/day for 6 days, mice injected with P388-MDR cells
Excerpt: as §1, §2, §3

MDR1 [2] = target: T1, MDR1; experiment: Fluorescent dye (Fura-2 AM) extrusion assay in MDR1-transfected NIH 3T3 fibroblasts; conditions: MDR1-expressing fibroblasts, FIG. 6
Excerpt: (§5) The second assay is based on the measurement of fluorescent dye uptake into intact cells. […] These hydrophobic dye esters are non-fluorescent outside the cell are cleaved by intracellular esterases into hydrophilic fluorescent free acids.

[3] = system: multidrug-resistant human tumor cell lines; experiment: Enhancement of cytotoxicity of drugs in multidrug-resistant human tumor cell lines; format: cell-based; conditions: K562 MDR and KBV1 sublines, FIGS. 10-11
Procedure: (§4) NIH 3T3 cells were cultured under standard conditions in D-MEM medium. MDR1-transfected cells (NIH MDR1 G185) were prepared and characterized for their drug-resistant properties as described (Ambdukar et al. Proc. Natl. Acad. Sci. USA 89:8472-8476, 1992; Bruggemann et al. J. Biol. Chem. 267:21020-21026, 1992; Sarkadi et al. 1992 supra). Before each experiment the cells were trypsinized, then washed and stored in D-MEM medium at 37° C. KBV1 (MDR1^+) and KB3 (MDR1^-) human tumor cells were also cultured in D-MEM, which K562 human tumor cells were grown in RPMI medium, supplemented with 10% FCS.
Another method for assessing the ability of Reversins to inhibit drug resistance is to measure the cytotoxicity of drugs in multidrug-resistant human tumor cell lines. Since MDR1 normally lowers the concentration of cytotoxic agents to subtoxic concentrations by extruding them from the cell, inhibition of MDR1 would be expected to enhance cytotoxicity.
In these studies, adriamycin, vincristine, and vinblastine, in originally ineffective concentrations, become effectively cytotoxic in the presence of 1-10 μg/ml of Reversins 121 or 205. FIGS. 10A and 10B present such an experiment for Reversin 205 using K562 human erythroblastoid tumor cells and their adriamycin-selected multidrug-resistant subline. […]

KBV1 cells = experiment: Cytotoxicity of Reversin alone in multidrug-resistant KBV1 cells; format: cell-based, human; conditions: MDR1-expressing cells, FIG. 11(A)
Procedure: as §4
In these studies, adriamycin, vincristine, and vinblastine, in originally ineffective concentrations, become effectively cytotoxic in the presence of 1-10 μg/ml of Reversins 121 or 205. FIGS. 10A and 10B present such an experiment for Reversin 205 using K562 human erythroblastoid tumor cells and their adriamycin-selected multidrug-resistant subline. FIGS. 11A and 11B are similar experiments with the […] tumor cells KB3 and KBV1, the latter being a multidrug resistant subline. […] Such a collateral toxic effect (which may be due to the ATP-consuming futile functioning of the drug transporter) can be greatly advantageous in treating drug-resistant tumors.

[4] = In vivo acute and subacute toxicity; design: species or system rat; conditions: rats, two-week follow-up
Procedure: The safety of Reversins for human administration can be confirmed in appropriate animal models. For example, the in vivo acute and subacute toxicity of Reversins was examined in laboratory rats. Reversins 121 and 205 solutions were prepared and administered as follows. Type A solutions contained 50 μg/ml Reversin 121 or 205 in 20% ethanol in physiological saline. Type B solutions contained 1 mg/ml in glycerol, containing 10% ethanol. Type A solutions (0.5 ml) were administered intravenously to three laboratory rats weighing 200-250 g each (about 100-125 μg/kg) twice daily for 3 days. Type B solutions (0.5 ml) were given to similar rats (2-2.5 mg/kg) by intraperitoneal injection, twice daily for three days. Control rats received the same solutions without the Reversins.

MDR1 [5] = target: T1, MDR1; remark: listed apart in the source
Excerpt: as §5

MDR1 [6] = target: T1, MDR1; experiment: Flow-cytometric fluorescent dye uptake in multidrug-resistant leukocytes of a leukemic patient; format: cell-based; design: endogenous in cells; host or cells: white blood cells isolated from the blood of a leukemic patient; conditions: 5 μM, 37° C., 10 minutes, FIG. 8
Procedure: Fluorescence measurements were done in 60 sec scanning periods using a Cytoronabsolut instrument (Ortho Diagnostic Systems, NJ). The excitation was set to 488 nm. Green fluorescence was measured with a filter with a range of 515-548 nm, while red fluorescence was measured above 620 nm.
By using the some fluorescent dye extrusion assay described above the in vitro effects of Reversins on the multidrug-resistant leukocytes of a leukemic patient were studied. Cells were isolated by withdrawing blood from the patient, and isolating white blood cells by centrifugation. Cells can be isolated from other types of tumors by biopsy. A flow cytometer was used to measure fluorescent dye loading of individual cells, which had been previously shown to express MDR1, in the absence or presence of Reversin 205 (FIG. 8). The uptake of fluorescent dye under these conditions models the uptake of cytotoxic drugs into the tumor cells. Fluorescent dye uptake was measured at 37° C. for 10 minutes. […] Further details for the method are provided by Hollo et al., supra.

[7] = intraperitoneal, 2-2.5 mg/kg twice daily for three days
[8] = intravenous, about 100-125 μg/kg twice daily for 3 days

## COc1ccc(CCN(C)CCCC(C#N)(c2ccc(OC)c(OC)c2)C(C)C)cc1OC (centres unmarked) [verapamil]
Control NIH 3T3 cells
  effect on dye accumulation: no effect

## C=C[C@H]1C[N@@]2CC[C@H]1C[C@H]2[C@H](O)c1ccnc2ccc(OC)cc12 [quinine, reference compound]
MDR1 [1]
  stimulation of MDR1-ATPase: stimulated

## COc1cccc2c1C(=O)c1c(O)c3c(c(O)c1C2=O)C[C@@](O)(C(=O)CO)C[C@@H]3O[C@H]1C[C@H](N)[C@H](O)[C@H](C)O1 [adriamycin]
Control P388 cells
  survival time: > 30 days
P388-MDR cells
  prolongation of lifetime: did not significantly prolong

## [Na+].[Na+].[Na+].[O]=[V]([O-])([O-])[O-] [sodium orthovanadate]
Control NIH 3T3 cells
  effect on dye accumulation: no effect
MDR1 [2]
  block of MDR1-specific dye-AM extrusion: blocked

## CC(C)(C)OC(=O)N[C@@H](CC(=O)OCc1ccccc1)C(=O)N[C@@H](CCCCNC(=O)OCc1ccccc1)C(=O)OC(C)(C)C [Reversin 121, BOC-Asp(OBzl)-Lys(Z)-OtBu] (Boc-Asp(OBn)-Lys(Cbz)-OtBu)
[3]
  Reversin concentration at which originally ineffective adriamycin, vincristine and vinblastine become effectively cytotoxic: 1 to 10 µg/mL
KBV1 cells
  cytotoxicity without vinblastine: cytotoxic
[4]; [7]
  acute or subacute toxicity: no acute or subacute toxicity
[4]; [8]
  acute or subacute toxicity: no acute or subacute toxicity
MDR1 [1]
  half-maximal activating concentration (Ka) of MDR1-ATPase: approximately 60 nM
  stimulation of MDR1-ATPase: greatly stimulated
MDR1 [5]
  inhibition of Fura2-AM dye extrusion: inhibit this dye extrusion

## CC[C@]1(O)C[C@H]2CN(CCc3c([nH]c4ccccc34)[C@@](C(=O)OC)(c3cc4c(cc3OC)N(C=O)[C@H]3[C@@](O)(C(=O)OC)[C@H](OC(C)=O)[C@]5(CC)C=CCN6CC[C@]43[C@@H]65)C2)C1 [vincristine, reference compound]
Control NIH 3T3 cells
  effect on dye accumulation: no effect
MDR1 [1]
  stimulation of MDR1-ATPase: stimulated
MDR1 [5]
  block of MDR1-specific dye-AM extrusion: blocked
  inhibition of Fura2-AM dye extrusion: inhibit this dye extrusion

## COC(=O)[C@H](CCCCNC(=O)[C@H](CCC(=O)OCc1ccccc1)NC(=O)OC(C)(C)C)NC(=O)[C@H](CCC(=O)OCc1ccccc1)NC(=O)OC(C)(C)C [Reversin 205, N^α, N^ε -bis[BOC-Glu(OBzl)]-Lys-OMe]
[3]
  Reversin concentration at which originally ineffective adriamycin, vincristine and vinblastine become effectively cytotoxic: 1 to 10 µg/mL
[4]; [7]
  acute or subacute toxicity: no acute or subacute toxicity
[4]; [8]
  acute or subacute toxicity: no acute or subacute toxicity
MDR1 [1]
  concentration giving strong inhibition of the MDR1-ATPase: above 1 μM
  half-maximal activating concentration (Ka) of MDR1-ATPase: about 30 nM
  stimulation of MDR1-ATPase: greatly stimulated
MDR1 [5]
  inhibition of Fura2-AM dye extrusion: inhibit this dye extrusion
MDR1 [6]
  dye extrusion by MDR1: blocked dye extrusion
  fluorescent dye uptake: significantly increased
